Among the data in patent US20250134890A1, “ANTIMALARIAL HEXAHYDROPYRIMIDINE ANALOGUES” (UCB BIOPHARMA SRL, priority 2022, published 2025) are IC50 values, retold here.

Structures can show the parent of a compound that is named as a salt.

This experiment concerns Plasmodium falciparum: 3D7 strain. Briefly: P. falciparum 3D7 asexual blood stage assay (SYBR green readout). Conditions: Plasmodium falciparum, 3D7, Erythrocyte, 72 h, P. falciparum 3D7 in human erythrocytes, 72 h incubation, SYBR green fluorescence. It is filed as cell-based. The text has this: The compounds of the present invention are potent inhibitors of the growth and propagation of the Plasmodium falciparum parasite in human blood.
The assay used to measure the effect of test compounds on a bloodstream stage of Plasmodium falciparum: 3D7 strain employs SYBR green as the readout. This is a dye that binds to double stranded deoxyribonucleic acid (DNA) with a resulting increase in fluorescence, allowing detection of P. falciparum DNA in infected erythrocytes, and thereby providing a measure of parasite growth and propagation.
Erythrocytes (A+blood) were prepared for both parasite culture and assay by washing 4 times with incomplete media (15.9 g RPMI 1640 (25 mM HEPES, L-glutamine), 1 g NaHCO3, 2 g glucose, 400 μL gentacin (500 mg/mL), 2 mL hypoxanthine solution (13.6 g/L in 0.1M NaOH pH 7.3) in 1 litre of media). The cells were centrifuged at 1800 g for 5 minutes, before decanting the supernatant and re-suspending in fresh incomplete media. On the final wash, the cells were re-suspended in complete media (incomplete media with 5 g/L AlbumaxII), and centrifuged at 1800 g for 3 minutes. This cell sediment was treated as 100% haematocrit.
P. falciparum 3D7 was cultured in erythrocytes at 5% haematocrit in complete media at 37° C. (1% O2, 3% CO2, balance N2). Cultures were split on a weekly basis to achieve a 1% parasitaemia in erythrocites at 5% haematocrit in fresh media. Culture media is replaced by fresh media every other day (2 times during the week).
On day 1, test compounds were added to assay plates using Echo dispensing technology ([…] and 20 points titration). 50 nL of each compound dilution was added to 50 μL of culture (5% haematocrit, 0.5% parasitaemia) and incubated for 72 h at 37° C. (1% O2, 3% CO2, balance N2). Final concentrations of test compounds ranged from 50,000 nM to 15 nM, in […].
On day 4, 10 μL SYBR green (Invitrogen S7563 supplied as 10,000×concentrate in DMSO) pre-diluted to 3×concentrate with Lysis buffer (20 mM Tris pH 7.9, 5% EDTA, 0.16% w/v, 1.6% TX100 v/v) was added to the cultures and incubated in the dark, overnight, at room temperature.
On day 5, fluorescent signal was measured using a BioTek plate reader (excitation 485 nm, emission 528 nm). All data were processed using IDBS ActivityBase. Raw data were converted into percent inhibition through linear regression by setting the high inhibition control (mefloquine) as 100% and the no inhibition control (DMSO) as 0%. Quality control criteria for passing plates were as follows: Z′>0.5, S:B>3, % CV(no inhibition control)<15. The formula used to calculate Z′ is: […]
All EC50 curve fitting was undertaken using the following bi-phasic two site dose response using XLfit model 300 (IDBS):
where A=100 minus the top of the upper curve 1 and the bottom of lower curve; B=Hill slope; log(C)=IC50 concentration at lower site; log(D)=IC50 concentration at upper site; x=inhibitor concentration; and y=% inhibition.
`C[C@@H]1C[C@@H](N2C(=N)N[C@](C)(c3cccc(-c4ccc(Cl)cn4)c3Cl)CC2=O)CCS1(=O)=O` (relative stereo) [Example 77, (6S)-6-[2-Chloro-3-(5-chloro-pyridin-2-yl)phenyl]-2-imino-6-methyl-3-[(2R*,4S*)-2-methyl-1,1-dioxothian-4-yl]hexahydro-pyrimidin-4-one hydrochloride] gave an IC50 of 0.46 µM.
For `C[C@H]1C[C@@H](N2C(=N)N[C@](C)(c3cccc(-c4ccc(OC(F)(F)F)nc4)c3Cl)CC2=O)CCS1(=O)=O` (relative stereo) [Example 78, (6S)-6-{2-Chloro-3-[6-(trifluoro-methoxy)pyridin-3-yl]phenyl}-2-imino-6-methyl-3-[(2S*,4S*)-2-methyl-1,1-dioxothian-4-yl]-hexahydropyrimidin-4-one hydrochloride] the value was 0.365 µM; for `C[C@@H]1C[C@H](N2C(=N)N[C@](C)(c3cccc(-c4ccc(OC(F)(F)F)nc4)c3Cl)CC2=O)CCS1(=O)=O` (relative stereo) [Example 79, (6S)-6-{2-Chloro-3-[6-(trifluoro-methoxy)pyridin-3-yl]phenyl}-2-imino-6-methyl-3-[(2R*,4R*)-2-methyl-1,1-dioxothian-4-yl]-hexahydropyrimidin-4-one hydrochloride], 0.107 µM; for `C[C@H]1C[C@H](N2C(=N)N[C@](C)(c3cccc(-c4ccc(OC(F)(F)F)nc4)c3Cl)CC2=O)CCS1(=O)=O` (relative stereo) [Example 80, (6S)-6-{2-Chloro-3-[6-(trifluoro-methoxy)pyridin-3-yl]phenyl}-2-imino-6-methyl-3-[(2S*,4R*)-2-methyl-1,1-dioxothian-4-yl]-hexahydropyrimidin-4-one hydrochloride], 1.7 µM.
On to `C[C@@H]1C[C@@H](N2C(=N)N[C@](C)(c3cccc(-c4ccc(OC(F)(F)F)nc4)c3Cl)CC2=O)CCS1(=O)=O` (relative stereo) [Example 81, (6S)-6-{2-Chloro-3-[6-(trifluoro-methoxy)pyridin-3-yl]phenyl}-2-imino-6-methyl-3-[(2R*,4S*)-2-methyl-1,1-dioxothian-4-yl]-hexahydropyrimidin-4-one hydrochloride], for which half-maximal inhibition (IC50) was put at 0.42 µM.
The compound `C[C@H]1C[C@@H](N2C(=N)N[C@](C)(c3cccc(-c4cncc(Cl)c4)c3Cl)CC2=O)CC[C@H]1O` (relative stereo) [Example 82, (6S)-6-[2-Chloro-3-(5-chloro-pyridin-3-yl)phenyl]-3-[(1S*,3S*,4R*)-4-hydroxy-3-methylcyclohexyl]-2-imino-6-methylhexahydropyrimidin-4-one hydrochloride] displayed an IC50 of 0.265 µM.
On to `C[C@@H]1C[C@H](N2C(=N)N[C@](C)(c3cccc(-c4cncc(Cl)c4)c3Cl)CC2=O)CC[C@@H]1O` (relative stereo) [Example 83, (6S)-6-[2-Chloro-3-(5-chloro-pyridin-3-yl)phenyl]-3-[(1R*,3R*,4S*)-4-hydroxy-3-methylcyclohexyl]-2-imino-6-methylhexahydropyrimidin-4-one hydrochloride], for which the IC50 came out at 0.052 µM.
Compound `C[C@@]1(c2cccc(-c3cnn(CC(F)(F)F)c3)c2Cl)CC(=O)N([C@@H]2CCC(F)(F)[C@H](O)C2)C(=N)N1` (relative stereo) [Example 84, (6S)-6-{2-Chloro-3-[1-(2,2,2-trifluoroethyl)pyrazol-4-yl]phenyl}-3-[(1R*,3R*)-4,4-difluoro-3-hydroxycyclohexyl]-2-imino-6-methylhexahydropyrimidin-4-one hydrochloride] showed an IC50 of 0.339 µM.
`C[C@@]1(c2cccc(-c3cnn(CC(F)(F)F)c3)c2Cl)CC(=O)N([C@H]2CCC(F)(F)[C@@H](O)C2)C(=N)N1` (relative stereo) [Example 85, (6S)-6-{2-Chloro-3-[1-(2,2,2-trifluoroethyl)pyrazol-4-yl]phenyl}-3-[(1S*,3S*)-4,4-difluoro-3-hydroxycyclohexyl]-2-imino-6-methylhexahydropyrimidin-4-one hydrochloride] came in with an IC50 of 2.67 µM.
In the case of `C[C@@]1(c2cccc(-c3cc(C4CC4)no3)c2Cl)CC(=O)N([C@@H]2CCC(F)(F)[C@H](O)C2)C(=N)N1` (relative stereo) [Example 86, (6S)-6-[2-Chloro-3-(3-cyclopropyl-isoxazol-5-yl)phenyl]-3-[(1R*,3R*)-4,4-difluoro-3-hydroxy-cyclohexyl]-2-imino-6-methyl-hexahydropyrimidin-4-one hydrochloride] it was 0.286 µM; in that of `C[C@@]1(c2cccc(-c3cc(C4CC4)no3)c2Cl)CC(=O)N([C@H]2CCC(F)(F)[C@@H](O)C2)C(=N)N1` (relative stereo) [Example 87, (6S)-6-[2-Chloro-3-(3-cyclopropyl-isoxazol-5-yl)phenyl]-3-[(1S*,3S*)-4,4-difluoro-3-hydroxycyclohexyl]-2-imino-6-methylhexahydro-pyrimidin-4-one hydrochloride], 2.91 µM; in that of `C[C@@]1(c2cccc(-c3cccc(Cl)c3)c2Cl)CC(=O)N([C@H]2CCOC[C@@H]2O)C(=N)N1` (relative stereo) [Example 95, (6S)-6-[2-Chloro-3-(3-chloro-phenyl)phenyl]-3-[(3R*,4S*)-3-hydroxytetrahydropyran-4-yl]-2-imino-6-methylhexahydro-pyrimidin-4-one hydrochloride], 0.323 µM.
For `C[C@@]1(c2cccc(-c3cccc(Cl)c3)c2Cl)CC(=O)N([C@@H]2CCOC[C@H]2O)C(=N)N1` (relative stereo) [Example 96, (6S)-6-[2-Chloro-3-(3-chloro-phenyl)phenyl]-3-[(3S*,4R*)-3-hydroxytetrahydropyran-4-yl]-2-imino-6-methylhexahydro-pyrimidin-4-one hydrochloride] the value was 1.43 µM; for `C[C@@]1(c2cccc(-c3ccc(F)cc3F)c2Cl)CC(=O)N([C@@H]2CCC(F)(F)[C@H](O)C2)C(=N)N1` (relative stereo) [Example 97, (6S)-6-[2-Chloro-3-(2,4-difluoro-phenyl)phenyl]-3-[(1R*,3R*)-4,4-difluoro-3-hydroxycyclohexyl]-2-imino-6-methylhexahydro-pyrimidin-4-one hydrochloride], 0.28 µM.
In the case of `C[C@@]1(c2cccc(-c3ccc(C4CC4)nc3)c2Cl)CC(=O)N([C@@H]2CCC(F)(F)[C@H](O)C2)C(=N)N1` (relative stereo) [Example 98, (6S)-6-[2-Chloro-3-(6-cyclopropyl-pyridin-3-yl)phenyl]-3-[(1R*,3R*)-4,4-difluoro-3-hydroxycyclohexyl]-2-imino-6-methylhexahydro-pyrimidin-4-one hydrochloride] it was 0.297 µM; in that of `C[C@@]1(c2cccc(-c3ccc(C4CC4)nc3)c2Cl)CC(=O)N([C@H]2CCC(F)(F)[C@@H](O)C2)C(=N)N1` (relative stereo) [Example 99, (6S)-6-[2-Chloro-3-(6-cyclopropyl-pyridin-3-yl)phenyl]-3-[(1S*,3S*)-4,4-difluoro-3-hydroxycyclohexyl]-2-imino-6-methylhexahydro-pyrimidin-4-one hydrochloride], 1.97 µM; in that of `C[C@H]1C[C@@H](N2C(=N)N[C@](C)(c3cccc(-c4cccc(Cl)c4)c3Cl)CC2=O)CCN1` (relative stereo) [Example 100, (6S)-6-[2-Chloro-3-(3-chloro-phenyl)phenyl]-2-imino-6-methyl-3-[(2S*,4S*)-2-methylpiperidin-4-yl]hexahydropyrimidin-4-one hydrochloride], 0.373 µM.
`C[C@@H]1C[C@H](N2C(=N)N[C@](C)(c3cccc(-c4cccc(Cl)c4)c3Cl)CC2=O)CCN1` (relative stereo) [Example 101, (6S)-6-[2-Chloro-3-(3-chloro-phenyl)phenyl]-2-imino-6-methyl-3-[(2R*,4R*)-2-methylpiperidin-4-yl]hexahydropyrimidin-4-one hydrochloride] returned an IC50 of 0.392 µM.
For `C[C@H]1C[C@@H](N2C(=N)N[C@](C)(c3cccc(-c4ccc(F)cc4F)c3Cl)CC2=O)CCN1` (relative stereo) [Example 102, (6S)-6-[2-Chloro-3-(2,4-difluoro-phenyl)phenyl]-2-imino-6-methyl-3-[(2S*,4S*)-2-methylpiperidin-4-yl]hexahydropyrimidin-4-one hydrochloride] the value was 0.504 µM.
